Assay results from BindingDB's records for patent US10392346 (Topivert Pharma, 2019).

Columns and labels:
[1] = target: Proto-oncogene tyrosine-protein kinase Src (Homo sapiens, UniProt P12931); test: Enzyme Inhibition
Procedure: The relevant enzyme (3000 ng/mL or 2000 ng/mL respectively, 2.5 μL) is incubated with the test compound (either 1 μg/mL, 0.1 μg/mL, 0.01 μg/mL, or 0.001 μg/mL, 2.5 μL each) for 2 hr at RT. The FRET peptides (8 μM, 2.5 μL), and appropriate ATP solutions (2.5 μL, 800 μM for c-Src, and 60 μM ATP for Syk) are then added to the enzymes/compound mixtures and the mixture incubated for 1 hr. Development reagent (protease, 5 μL) is added for 1 hr prior to detection in a fluorescence microplate reader (Varioskan Flash, ThermoFisher Scientific).

[2] = target: Glycogen synthase kinase-3 alpha (Homo sapiens, UniProt P49840); test: Enzyme Inhibition
Sequence of Glycogen synthase kinase-3 alpha (P49840 whole entry, canonical isoform): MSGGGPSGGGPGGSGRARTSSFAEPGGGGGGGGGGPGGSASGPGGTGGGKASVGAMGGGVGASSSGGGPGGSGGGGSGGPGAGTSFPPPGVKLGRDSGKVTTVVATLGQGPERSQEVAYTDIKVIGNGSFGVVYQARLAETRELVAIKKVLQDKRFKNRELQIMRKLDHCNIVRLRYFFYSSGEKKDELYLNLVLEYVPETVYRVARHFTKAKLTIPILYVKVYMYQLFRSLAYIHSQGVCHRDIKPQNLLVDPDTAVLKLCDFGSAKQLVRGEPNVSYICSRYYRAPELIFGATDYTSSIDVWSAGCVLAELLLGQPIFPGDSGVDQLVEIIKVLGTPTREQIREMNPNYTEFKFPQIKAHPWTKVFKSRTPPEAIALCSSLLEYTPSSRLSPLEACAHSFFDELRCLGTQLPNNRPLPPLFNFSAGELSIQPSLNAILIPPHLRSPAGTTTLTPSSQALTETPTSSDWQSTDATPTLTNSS
Procedure: In addition, the concentrations of test compound employed are either 10 μg/mL, 1 μg/mL, 0.1 μg/mL, or 0.01 μg/m: Method 1: The inhibitory activities of test compounds against the p38 MAPKα isoform (MAPK14: Invitrogen) are evaluated indirectly by determining the level of activation/phosphorylation of the down-stream molecule, MAPKAP-K2. The p38 MAPKα protein (80 ng/mL, 2.5 μL) is mixed with the test compound (2.5 μL of either 4 μg/mL, 0.4 μg/mL, 0.04 μg/mL or 0.004 μg/mL) for 2 hr at RT. […] The mixture is incubated for 1 hr at RT. Development reagent (protease, 5 μL) is added for 1 hr prior to detection in a fluorescence microplate reader (Varioskan Flash, ThermoFisher Scientific).

Sequence of Proto-oncogene tyrosine-protein kinase Src (P12931 2-536 limits assumed): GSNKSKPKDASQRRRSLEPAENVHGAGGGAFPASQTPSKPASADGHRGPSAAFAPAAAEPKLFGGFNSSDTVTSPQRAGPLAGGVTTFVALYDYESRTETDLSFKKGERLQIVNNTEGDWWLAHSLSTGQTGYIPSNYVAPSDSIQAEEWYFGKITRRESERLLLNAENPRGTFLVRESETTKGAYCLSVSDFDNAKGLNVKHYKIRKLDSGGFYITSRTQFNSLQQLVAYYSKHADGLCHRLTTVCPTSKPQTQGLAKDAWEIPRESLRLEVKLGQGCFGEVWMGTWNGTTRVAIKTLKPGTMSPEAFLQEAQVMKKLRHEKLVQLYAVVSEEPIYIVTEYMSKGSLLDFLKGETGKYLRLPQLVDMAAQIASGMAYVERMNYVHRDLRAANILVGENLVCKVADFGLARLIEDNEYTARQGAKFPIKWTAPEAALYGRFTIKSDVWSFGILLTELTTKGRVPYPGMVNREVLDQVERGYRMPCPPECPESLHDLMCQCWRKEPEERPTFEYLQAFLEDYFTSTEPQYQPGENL

SMILES | IC50 [1] [µM] | IC50 [2] [µM]
COc1cc(Nc2cc(Oc3ccc(NC(=O)Nc4cc(C(C)(C)C)cc(NS(C)(=O)=O)c4OC)c4ccccc34)ccn2)ccc1C(=O)N(C)CCCN1CCS(=O)(=O)CC1 [US10392346, Example 17(ah)] | 0.02 | 9.19
COc1cc(Nc2cc(Oc3ccc(NC(=O)Nc4cc(C(C)(C)C)cc(NS(C)(=O)=O)c4OC)c4ccccc34)ccn2)ccc1C(=O)N(C)CCCN1CC[S+]([O-])CC1 [US10392346, Example 17(ag)] | 0.017 | 2.75
COc1cc(Nc2cc(Oc3ccc(NC(=O)Nc4cc(C(C)(C)C)cc(N[S+](C)[O-])c4OC)c4ccccc34)ccn2)ccc1C(=O)NCCN1CCN(C)CC1 (stereo unspecified) [US10392346, Example 17(a)] | 0.016 | 4
